The text below walks through data of ChEMBL document CHEMBL4052672, “Discovery of β-d-2'-deoxy-2'-dichlorouridine nucleotide prodrugs as potent inhibitors of hepatitis C virus replication” (Bioorg Med Chem Lett, 2017).

Active and inactive are the calls of the source. The rule behind the calls is not given here.

In data set [1] the test system is Hepatitis C virus. As to the kind of experiment: Antiviral activity against HCV genotype 1b subgenomic replicon. The format is functional, Hepacivirus hominis. (In general: A replicon is a self-replicating genome or part of one, used to study replication in cells.)
The nature of data set [2]: Cytotoxic activity against human HuH7 cells incubated for 6 days by CCK8 assay. The data set is classed as cell-based, Huh-7. (Tetrazolium dyes change colour on reduction, which living cells bring about.)
The subject of data set [3] is Hepatitis C virus. The experiment in a line: Antiviral activity against HCV genotype 1b subgenomic replicon infected in human HuH7 Luc-neo cells assessed as inhibition of viral replication by luciferase reporter gene assay. The format is functional, cell-based, Hepacivirus hominis. As to conditions: Huh-7.
A short description of data set [4]: Inhibition of HCV genotype 1b NS5B RNA dependent RNA polymerase. Set-up: species or system Hepatitis C virus subtype 1b.
Data set [5] has as its system Hepatitis C virus. The experiment in a line: Antiviral activity against HCV genotype 5a subgenomic replicon infected in human Huh7-Lunet cells assessed as inhibition of viral replication by luciferase reporter gene assay. As to conditions: Huh-7. The data set is classed as functional, cell-based, Hepacivirus hominis.
For data set [6], the system named is Hepatitis C virus. As to the kind of experiment: Antiviral activity against HCV genotype 1b subgenomic replicon expressing NS5B RNA dependent RNA polymerase S282T mutant infected in human HuH7 Luc-neo cells assessed as inhibition of viral replication by luciferase reporter gene assay relative to wild type HCV genotype 1b. The data set is classed as functional, Hepacivirus hominis.

Data set [7] has as its system Hepatitis C virus. The experiment in a line: Antiviral activity against HCV genotype 1a subgenomic replicon infected in human Huh7-Lunet cells assessed as inhibition of viral replication by luciferase reporter gene assay. As to conditions: subtype 1a, Huh-7. The data set is classed as functional, cell-based, Hepacivirus hominis.
Data set [8] concerns Hepatitis C virus. As to the kind of experiment: Antiviral activity against HCV genotype 2a subgenomic replicon. The format is functional, Hepacivirus hominis.
Data set [9] concerns Hepatitis C virus. The experiment in a line: Antiviral activity against HCV genotype 3a subgenomic replicon infected in human Huh7-Lunet cells assessed as inhibition of viral replication by luciferase reporter gene assay. Particulars: Huh-7. The format is functional, cell-based, Hepacivirus hominis.
For data set [10], the system named is Hepatitis C virus. As to the kind of experiment: Antiviral activity against HCV genotype 4a subgenomic replicon infected in human Huh7-Lunet cells assessed as inhibition of viral replication by luciferase reporter gene assay. The format is functional, cell-based, Hepacivirus hominis. As to conditions: Huh-7.
For data set [11], the system named is Hepatitis C virus. As to the kind of experiment: Antiviral activity against HCV genotype 6a subgenomic replicon infected in human Huh7-Lunet cells assessed as inhibition of viral replication by luciferase reporter gene assay. The data set is classed as functional, cell-based, Hepacivirus hominis. As to conditions: Huh-7.
The nature of data set [12]: Drug metabolism in human hepatocytes assessed as ((2R,3R,4R,5R)-5-(2,4-dioxo-3,4-dihydropyrimidin-1(2H)-yl)-4-fluoro-3-hydroxy-4-methyltetrahydrofuran-2-yl)methyl tetrahydrogen triphosphate formation at 10 uM after 1 to 24 hrs by LC-MS/MS method. The format is ADME, cell-based, Hepatocyte.
A short description of data set [13]: Drug metabolism in human hepatocytes assessed as cytidine triphosphate metabolite formation at 10 uM after 1 to 24 hrs by LC-MS/MS method. The data set is classed as ADME, cell-based, Hepatocyte.
Data set [14] can be described thus: Stability in human intestinal […] S9 fraction assessed as half life at 2 uM by LC-MS/MS method. The data set is classed as ADME.
Data set [15] in a line: Stability in human liver S9 fraction assessed as half life at 2 uM by LC-MS/MS method. The format is ADME, tissue-based.
Data set [16] in a line: Stability in human whole blood assessed as half life at 2 uM by LC-MS/MS method. The format is ADME.
Data set [17] in a line: Drug metabolism in human hepatocytes assessed as ((2R,3R,5R)-4,4-dichloro-5-(2,4-dioxo-3,4-dihydropyrimidin-1(2H)-yl)-3-hydroxytetrahydrofuran-2-yl)methyl tetrahydrogen triphosphate formation at 10 uM after 1 to 24 hrs by LC-MS/MS method. The data set is classed as ADME, cell-based, Hepatocyte.
Data set [18] can be described thus: Drug metabolism in human hepatocytes assessed as ((2R,3R,5R)-5-(4-amino-2-oxopyrimidin-1(2H)-yl)-4,4-dichloro-3-hydroxytetrahydrofuran-2-yl)methyl tetrahydrogen triphosphate formation at 10 uM after 1 to 24 hrs by LC-MS/MS method. The format is ADME, cell-based, Hepatocyte.
In data set [19] the test system is Canis familiaris. The experiment in a line: Drug metabolism in dog liver assessed as ((2R,3R,5R)-5-(4-amino-2-oxopyrimidin-1(2H)-yl)-4,4-dichloro-3-hydroxytetrahydrofuran-2-yl)methyl tetrahydrogen triphosphate formation at 50 mg/kg/day, po for 4 days. Particulars: in vivo, 96 h. The data set is classed as ADME, organism-based, Canis lupus familiaris.
Data set [20] concerns Canis familiaris. The experiment in a line: Drug metabolism in dog liver assessed as ((2R,3R,5R)-5-(4-amino-2-oxopyrimidin-1(2H)-yl)-4,4-dichloro-3-hydroxytetrahydrofuran-2-yl)methyl tetrahydrogen triphosphate formation at 50 mg/kg/day, po for 4 days measured at 4 hrs on day 4. The data set is classed as ADME, organism-based, Canis lupus familiaris. Particulars: in vivo.
For data set [21], the system named is Canis familiaris. As to the kind of experiment: Drug metabolism in dog liver assessed as ((2R,3R,5R)-4,4-dichloro-5-(2,4-dioxo-3,4-dihydropyrimidin-1(2H)-yl)-3-hydroxytetrahydrofuran-2-yl)methyl tetrahydrogen triphosphate formation at 50 mg/kg/day, po for 4 days measured at 4 hrs on day 4. The format is ADME, organism-based, Canis lupus familiaris. As to conditions: in vivo.

A short description of data set [22]: (§1) Inhibition of HCV genotype 1b NS5B Cdelta21 RNA dependent RNA polymerase using cIRES, GTP, UTP and CTP incubated for 30 mins in presence of [3H]-ATP/ATP mixture by scintillation counting method. Set-up: species or system Hepatitis C virus subtype 1b.
The test system of data set [23] is Hepatitis C virus subtype 1b. Described as §1.

With `CC(C)OC(=O)[C@H](C)NP(=O)(OC[C@H]1O[C@@H](n2ccc(=O)[nH]c2=O)C(F)(F)[C@@H]1O)Oc1ccccc1` (single isomer, unassigned), a half-maximal effect in [1] (EC50) was put at 970 nM.

As for `O=c1ccn([C@@H]2O[C@H](CO)[C@@H](O)C2(Cl)Cl)c(=O)[nH]1`, the CC50 (as a rule, the concentration that lowers cell viability or growth by half) at 144 h in data set [2] is over 100000 nM. Moreover, the EC50 – broadly, the concentration needed to bring the measured effect to its halfway point – in [3] is over 50000 nM.

For the compound `C[C@@]1(F)[C@H](O)[C@@H](COP(=O)(O)OP(=O)(O)OP(=O)(O)O)O[C@H]1n1ccc(=O)[nH]c1=O` [GS-461203], affinity in data set [4] was put at a Ki of 490 nM.

Take `CC(C)OC(=O)[C@H](C)N[P@@](=O)(OC[C@H]1O[C@@H](n2ccc(=O)[nH]c2=O)[C@](C)(F)[C@@H]1O)Oc1ccccc1`: the EC50 in [5] is 120 nM; in data set [1], 92 nM; in [7], 170 nM; in [8], 50 nM; in data set [9], 130 nM; in data set [10] it was 230 nM. Also, in [11], the EC50 is 180 nM. Further, the “Ratio EC50” value in data set [6] came out at 7.8. The Drug metabolism entry in [12] and in [13] was “Metabolite_Detected” throughout.

In the case of `CC(C)OC(=O)[C@H](C)N[P@@](=O)(OC[C@H]1O[C@@H](n2ccc(=O)[nH]c2=O)C(Cl)(Cl)[C@@H]1O)Oc1ccccc1`, the EC50 came to 53 nM in [5]; 56 nM in [3]; 70 nM in [7]; 18 nM in data set [8]; 68 nM in data set [9]; 66 nM in data set [10]. In addition, the EC50 in data set [11] came out at 69 nM. In addition, the CC50 at 144 h in data set [2] is over 100000 nM. For the same compound, the “Ratio EC50” value in data set [6] was found to be 4.1. The half-life – broadly, the time in which the quantity being followed falls by half – at 2 µM in [14] was determined as 1380 min; in data set [15] it was 43 min; in data set [16], 27 min. The Drug metabolism entry is “Metabolite_Detected” in data set [17]; “Metabolite_Detected” in data set [18]; “Metabolite_Detected” in [19]; 0.93 µM in data set [20]; 3.5 µM in [21].

In data set [2], `CC(C)OC(=O)[C@H](C)NP(=O)(OC[C@H]1O[C@@H](n2ccc(=O)[nH]c2=O)C(Cl)(Cl)[C@@H]1O)Oc1ccc(C2(C)CC2)cc1` (single isomer, unassigned) registered a CC50 at 144 h of 62000 nM. In addition, the EC50 in data set [3] came out at 340 nM. The half-life at 2 µM in data set [14] is 60 min; in data set [15], 10 min; in [16] it was 8 min.

Compound `CC(C)OC(=O)[C@H](C)NP(=O)(OC[C@H]1O[C@@H](n2ccc(=O)[nH]c2=O)C(Cl)(Cl)[C@@H]1O)Oc1cccc(C2CCC2)c1` (single isomer, unassigned) had a CC50 at 144 h in data set [2] of over 100000 nM. Further, in data set [3], the EC50 turned out to be 220 nM. Further, the half-life at 2 µM was 20 min in [14], 3 min in [15] and 8 min in [16].

Turning to `C[C@H](NP(=O)(OC[C@H]1O[C@@H](n2ccc(=O)[nH]c2=O)C(Cl)(Cl)[C@@H]1O)Oc1ccccc1)C(=O)OC1CCCCC1` (single isomer, unassigned), in data set [2], the CC50 at 144 h is over 100000 nM. Moreover, in [3], the EC50 came to 160 nM. In addition, the half-life at 2 µM in data set [14] was found to be 70 min; in [15], 3 min; in data set [16] it was 20 min.

As to `CC[C@H](C)OC(=O)[C@H](C)NP(=O)(OC[C@H]1O[C@@H](n2ccc(=O)[nH]c2=O)C(Cl)(Cl)[C@@H]1O)Oc1ccccc1` (single isomer, unassigned), in data set [2], the CC50 at 144 h is over 100000 nM. Further, the EC50 in [3] stood at 83 nM. The results for the half-life at 2 µM in data set [14], in data set [15] and in data set [16] were 140 min, 7 min and 11 min, respectively.

Take `O=c1ccn([C@@H]2O[C@H](COP(=O)(O)OP(=O)(O)OP(=O)(O)O)[C@@H](O)C2(F)F)c(=O)[nH]1`: in [4], the half-inhibitory concentration (IC50) (usually the concentration at which inhibition is half-maximal) was over 100000 nM.

Turning to `CC(C)OC(=O)[C@H](C)NP(=O)(OC[C@H]1O[C@@H](n2ccc(=O)[nH]c2=O)C(Cl)(Cl)[C@@H]1O)Oc1cccc(C2(C)CC2)c1` (single isomer, unassigned), the CC50 at 144 h in [2] is over 100000 nM. The EC50 in [3] was determined as 230 nM. The values for the half-life at 2 µM in data set [14], in data set [15] and in [16] were 20 min, 4 min and 12 min, respectively.

For `CC[C@@H](C)OC(=O)[C@H](C)NP(=O)(OC[C@H]1O[C@@H](n2ccc(=O)[nH]c2=O)C(Cl)(Cl)[C@@H]1O)Oc1ccccc1` (single isomer, unassigned), the CC50 at 144 h in [2] was over 100000 nM. In data set [3], the EC50 is 110 nM. Moreover, the half-life at 2 µM came to 140 min in data set [14], 8 min in data set [15] and 11 min in data set [16].

On to `Nc1ccn([C@@H]2O[C@H](COP(=O)(O)OP(=O)(O)OP(=O)(O)O)[C@@H](O)C2(Cl)Cl)c(=O)n1`, for which, in [22], the Ki (as a rule, the dissociation constant of the complex between target and ligand, obtained from inhibition or displacement) is 200 nM.

As for `O=c1ccn([C@@H]2O[C@H](COP(=O)(O)OP(=O)(O)OP(=O)(O)O)[C@@H](O)C2(Cl)Cl)c(=O)[nH]1`, in data set [23], the inhibition entry was “Active”.
